# In US9725459B2, “3-oxo-tetrahydro-furo[3,2-B]pyrrol-4(5H)-yl) derivatives I” (GRÜNENTHAL GMBH, priority 2014, dated 2017):
# Tests used:
# Type in all cases: biochemical
# [1] = biological target: human cathepsin L (CatL) (Homo sapiens (Human), UniProt P07711); experiment: CatL functional enzyme assay; details: read-out: hCatL, inhibition [%] at 31.6 μM
# [2] = biological target: human cathepsin K (CatK) (Homo sapiens (Human), UniProt P43235); experiment: CatK functional enzyme assay; details: recombinant human CatK, substrate Z-FR-AMC 40 μM, pH 5.5; Ki by Cheng Prusoff equation; read-out: hCatK, Ki
# Chain of human cathepsin K (CatK) (P43235 115-329): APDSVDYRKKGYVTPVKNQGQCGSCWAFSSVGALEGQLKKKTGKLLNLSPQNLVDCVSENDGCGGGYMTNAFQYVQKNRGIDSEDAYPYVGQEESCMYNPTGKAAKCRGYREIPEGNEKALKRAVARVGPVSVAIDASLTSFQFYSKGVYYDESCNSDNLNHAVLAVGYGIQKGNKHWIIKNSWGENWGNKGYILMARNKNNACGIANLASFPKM
# Outline: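 Recombinant human enzymes in 50 mM NaOAc, 10 mM EDTA, 1 mM DTT, 0.01% Triton X-100, pH 5.5, 10 min at RT. CatK: 0.00175 mU/well with 40 μM Z-FR-AMC; CatL: 0.000874 mU/well with 40 μM Z-VVR-AMC. AMC fluorescence read; IC50 converted to Ki via Cheng–Prusoff.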
# [3] = biological target: human cathepsin S (CatS) (Homo sapiens (Human), UniProt P25774); experiment: CatS functional enzyme assay; details: for Selectivity Ki(hCatS)/Ki(hCatK): ratio Ki(hCatS)/Ki(hCatK); for Ki: recombinant human CatS, substrate Z-VVR-AMC 5 μM, pH 6.5, Ki by Cheng Prusoff equation, read-out: hCatS, Ki
# Chain of human cathepsin S (CatS) (P25774 115-331): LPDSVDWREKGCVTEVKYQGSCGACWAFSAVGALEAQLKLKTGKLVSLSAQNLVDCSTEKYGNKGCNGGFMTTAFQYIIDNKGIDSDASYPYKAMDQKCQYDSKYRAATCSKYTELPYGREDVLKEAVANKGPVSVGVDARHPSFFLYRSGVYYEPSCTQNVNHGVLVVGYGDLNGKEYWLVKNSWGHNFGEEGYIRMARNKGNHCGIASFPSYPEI
# Outline: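 Recombinant human enzymes were incubated 10 min at RT with AMC substrate: CatS 0.0007 mU/well with Z-VVR-AMC 5 µM; CatK 0.00175 mU/well with Z-FR-AMC 40 µM; CatL 0.000874 mU/well with Z-VVR-AMC 40 µM. Fluorescence gave IC50, converted to Ki by Cheng-Prusoff.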
# Chain of human cathepsin L (CatL) (P07711 114-333): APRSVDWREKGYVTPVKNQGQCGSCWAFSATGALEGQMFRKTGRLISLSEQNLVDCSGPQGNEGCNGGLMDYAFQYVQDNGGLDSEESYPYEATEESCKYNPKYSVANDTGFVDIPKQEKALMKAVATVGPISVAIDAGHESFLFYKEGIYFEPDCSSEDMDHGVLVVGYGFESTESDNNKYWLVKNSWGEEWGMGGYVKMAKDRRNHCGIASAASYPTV
SMILES,inhibition at 31.6 µM [1],Ki [2],Selectivity Ki(hCatS)/Ki(hCatK) [3],Ki [3]
"O=C(N[C@H](C(=O)N1C[C@H](Cl)[C@H]2OCC(=O)[C@H]21)C1CCCCC1)c1ccc(-c2cnc(C3CC3)nc2)s1 [Example 55, N-((S)-2-((3aS,6S,6aS)-6-chloro-3-oxotetrahydro-2H-furo[3,2-b]pyrrol-4(5H)-yl)-1-cyclohexyl-2-oxoethyl)-5-(2-cyclopropylpyrimidin-5-yl)thiophene-2-carboxamide]",13%,29 nM,2.4,70 nM
"COc1cc(-c2ccc(C(=O)N[C@H](C(=O)N3C[C@H](Cl)[C@H]4OCC(=O)[C@H]43)C3CCCCC3)s2)ccn1 [Example 56, N-((S)-2-((3aS,6S,6aS)-6-chloro-3-oxotetrahydro-2H-furo[3,2-b]pyrrol-4(5H)-yl)-1-cyclohexyl-2-oxoethyl)-5-(2-methoxypyridin-4-yl)thiophene-2-carboxamide]",20%,6 nM,16.6,92 nM
"O=C(N[C@H](C(=O)N1C[C@H](Cl)[C@H]2OCC(=O)[C@H]21)C1CCCCC1)c1ncc(-c2cnc(C3CC3)nc2)s1 [Example 57, N-((S)-2-((3aS,6S,6aS)-6-chloro-3-oxotetrahydro-2H-furo[3,2-b]pyrrol-4(5H)-yl)-1-cyclohexyl-2-oxoethyl)-5-(2-cyclopropylpyrimidin-5-yl)thiazole-2-carboxamide]",23%,42 nM,3.6,150 nM
"Cc1nnccc1-c1ccc(C(=O)N[C@H](C(=O)N2C[C@H](Cl)[C@H]3OCC(=O)[C@H]32)C2CCCCC2)s1 [Example 58, N-((S)-2-((3aS,6S,6aS)-6-chloro-3-oxotetrahydro-2H-furo[3,2-b]pyrrol-4(5H)-yl)-1-cyclohexyl-2-oxoethyl)-5-(3-methylpyridazin-4-yl)thiophene-2-carboxamide]",21%,34 nM,1.5,51 nM
"O=C(N[C@H](C(=O)N1C[C@H](Cl)[C@H]2OCC(=O)[C@H]21)C1CCCCC1)c1ccc(-c2cnc(C(F)(F)F)nc2)s1 [Example 61, N-((S)-2-((3aS,6S,6aS)-6-chloro-3-oxotetrahydro-2H-furo[3,2-b]pyrrol-4(5H)-yl)-1-cyclohexyl-2-oxoethyl)-5-(2-(trifluoromethyl)pyrimidin-5-yl)thiophene-2-carboxamide]",0%,76 nM,4.0,302 nM
"O=C(N[C@H](C(=O)N1C[C@H](Cl)[C@H]2OCC(=O)[C@H]21)C1CCCCC1)c1ccc(-c2ccc(C(F)(F)F)nc2)s1 [Example 62, N-((S)-2-((3aS,6S,6aS)-6-chloro-3-oxotetrahydro-2H-furo[3,2-b]pyrrol-4(5H)-yl)-1-cyclohexyl-2-oxoethyl)-5-(6-(trifluoromethyl)pyridin-3-yl)thiophene-2-carboxamide]",25%,58 nM,10.0,580 nM
"O=C(N[C@H](C(=O)N1C[C@H](Cl)[C@H]2OCC(=O)[C@H]21)C1CCCCC1)c1ccc(-c2ccc(C3CC3)nc2)s1 [Example 63, N-((S)-2-((3aS,6S,6aS)-6-chloro-3-oxotetrahydro-2H-furo[3,2-b]pyrrol-4(5H)-yl)-1-cyclohexyl-2-oxoethyl)-5-(6-cyclopropylpyridin-3-yl)thiophene-2-carboxamide]",1%,19 nM,27.6,525 nM
"O=C(N[C@H](C(=O)N1C[C@H](Cl)[C@H]2OCC(=O)[C@H]21)C1CCCCC1)c1ncc(-c2ccc(C3CC3)nc2)s1 [Example 64, N-((S)-2-((3aS,6S,6aS)-6-chloro-3-oxotetrahydro-2H-furo[3,2-b]pyrrol-4(5H)-yl)-1-cyclohexyl-2-oxoethyl)-5-(6-cyclopropylpyridin-3-yl)thiazole-2-carboxamide]",5%,29 nM,21.3,616 nM

# Now from value to compound:
inhibition at 31.6 µM [1],Ki [2],Selectivity Ki(hCatS)/Ki(hCatK) [3],Ki [3],SMILES
28%,20 nM,11.1,221 nM,"O=C(N[C@H](C(=O)N1C[C@H](Cl)[C@H]2OCC(=O)[C@H]21)C1CCCCC1)c1ncc(-c2cncc(F)c2)s1 [Example 47, N-((S)-2-((3aS,6S,6aS)-6-chloro-3-oxotetrahydro-2H-furo[3,2-b]pyrrol-4(5H)-yl)-1-cyclohexyl-2-oxoethyl)-5-(5-fluoropyridin-3-yl)thiazole-2-carboxamide]"
7%,14 nM,17.3,242 nM,"O=C(N[C@H](C(=O)N1C[C@H](Cl)[C@H]2OCC(=O)[C@H]21)C1CCCCC1)c1ncc(-c2cnccn2)s1 [Example 48, N-((S)-2-((3aS,6S,6aS)-6-chloro-3-oxotetrahydro-2H-furo[3,2-b]pyrrol-4(5H)-yl)-1-cyclohexyl-2-oxoethyl)-5-(pyrazin-2-yl)thiazole-2-carboxamide]"
4%,9 nM,41.8,376 nM,"O=C(N[C@H](C(=O)N1C[C@H](Cl)[C@H]2OCC(=O)[C@H]21)C1CCCCC1)c1ncc(-c2ccncc2)s1 [Example 49, N-((S)-2-((3aS,6S,6aS)-6-chloro-3-oxotetrahydro-2H-furo[3,2-b]pyrrol-4(5H)-yl)-1-cyclohexyl-2-oxoethyl)-5-(pyridin-4-yl)thiazole-2-carboxamide]"
15%,11 nM,66.6,733 nM,"O=C(N[C@H](C(=O)N1C[C@H](Cl)[C@H]2OCC(=O)[C@H]21)C1CCCCC1)c1ncc(-c2ccncc2F)s1 [Example 50, N-((S)-2-((3aS,6S,6aS)-6-chloro-3-oxotetrahydro-2H-furo[3,2-b]pyrrol-4(5H)-yl)-1-cyclohexyl-2-oxoethyl)-5-(3-fluoropyridin-4-yl)thiazole-2-carboxamide]"
6%,7 nM,24.7,173 nM,"Cc1cc(-c2cnc(C(=O)N[C@H](C(=O)N3C[C@H](Cl)[C@H]4OCC(=O)[C@H]43)C3CCCCC3)s2)ccn1 [Example 51, N-((S)-2-((3aS,6S,6aS)-6-chloro-3-oxotetrahydro-2H-furo[3,2-b]pyrrol-4(5H)-yl)-1-cyclohexyl-2-oxoethyl)-5-(2-methylpyridin-4-yl)thiazole-2-carboxamide]"
7%,14 nM,14.5,203 nM,"O=C(N[C@H](C(=O)N1C[C@H](Cl)[C@H]2OCC(=O)[C@H]21)C1CCCCC1)c1ncc(-c2ccc(Cl)nc2)s1 [Example 52, N-((S)-2-((3aS,6S,6aS)-6-chloro-3-oxotetrahydro-2H-furo[3,2-b]pyrrol-4(5H)-yl)-1-cyclohexyl-2-oxoethyl)-5-(6-chloropyridin-3-yl)thiazole-2-carboxamide]"
40%,34 nM,8.9,302 nM,"O=C(N[C@H](C(=O)N1C[C@H](Cl)[C@H]2OCC(=O)[C@H]21)C1CCCCC1)c1sc(-c2cncnc2)cc1F [Example 53, N-((S)-2-((3aS,6S,6aS)-6-chloro-3-oxotetrahydro-2H-furo[3,2-b]pyrrol-4(5H)-yl)-1-cyclohexyl-2-oxoethyl)-3-fluoro-5-(pyrimidin-5-yl)thiophene-2-carboxamide]"
27%,21 nM,25.1,528 nM,"O=C(N[C@H](C(=O)N1C[C@H](Cl)[C@H]2OCC(=O)[C@H]21)C1CCCCC1)c1cc(F)c(-c2cccnn2)s1 [Example 54, N-((S)-2-((3aS,6S,6aS)-6-chloro-3-oxotetrahydro-2H-furo[3,2-b]pyrrol-4(5H)-yl)-1-cyclohexyl-2-oxoethyl)-4-fluoro-5-(pyridazin-3-yl)thiophene-2-carboxamide]"
0%,118 nM,6.2,726 nM,"O=C(N[C@H](C(=O)N1C[C@H](Cl)[C@H]2OCC(=O)[C@H]21)C1CCCCC1)c1sc(-c2cccnn2)cc1F [Example 59, N-((S)-2-((3aS,6S,6aS)-6-chloro-3-oxotetrahydro-2H-furo[3,2-b]pyrrol-4(5H)-yl)-1-cyclohexyl-2-oxoethyl)-3-fluoro-5-(pyridazin-3-yl)thiophene-2-carboxamide]"
11%,104 nM,2.3,238 nM,"O=C(N[C@H](C(=O)N1C[C@H](Cl)[C@H]2OCC(=O)[C@H]21)C1CCCCC1)c1sc(-c2ccnnc2)cc1F [Example 60, N-((S)-2-((3aS,6S,6aS)-6-chloro-3-oxotetrahydro-2H-furo[3,2-b]pyrrol-4(5H)-yl)-1-cyclohexyl-2-oxoethyl)-3-fluoro-5-(pyridazin-4-yl)thiophene-2-carboxamide]"
